Experimental data reported in ChEMBL document CHEMBL1201862, “PubChem BioAssay data set” (2004).
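Cells were grown in 96-well plates and exposed to each compound for 48 hours at five concentrations; endpoints were interpolated linearly between bracketing concentrations, or set to the highest concentration if not reached. The concentration for 50% growth inhibition is given as GI50.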 The source made the active and inactive calls. Rule as the data show it: active = GI50 up to about 1.1 µM and inactive = higher.

Columns and labels:
Assay in all cases: NCI anticancer screen, dose series, 48 h
CAKI-1 = test system: CAKI-1
HCC 2998 = test system: HCC 2998
RPMI-8226 = test system: RPMI-8226
CCRF-CEM = test system: CCRF-CEM
TK-10 = test system: TK-10
K562 = test system: K562
SK-MEL-28 = test system: SK-MEL-28
SK-OV-3 = test system: SK-OV-3
NCI-H226 = test system: NCI-H226
EKVX = test system: EKVX
HL-60 = test system: HL-60
M14 = test system: M14
SNB-19 = test system: SNB-19
HT-29 = test system: HT-29
SF-539 = test system: SF-539
PC-3 = test system: PC-3
Hs-578T = test system: Hs-578T
MDA-MB-435 = test system: MDA-MB-435
MDA-N = test system: MDA-N
MCF7 = test system: MCF7

| Compound | GI50 (CAKI-1) | GI50 (HCC 2998) | GI50 (RPMI-8226) | GI50 (CCRF-CEM) | GI50 (TK-10) | GI50 (K562) | GI50 (SK-MEL-28) | GI50 (SK-OV-3) | GI50 (NCI-H226) | GI50 (EKVX) | GI50 (HL-60) | GI50 (M14) | GI50 (SNB-19) | GI50 (HT-29) | GI50 (SF-539) | GI50 (PC-3) | GI50 (Hs-578T) | GI50 (MDA-MB-435) | GI50 (MDA-N) | GI50 (MCF7) |
| --- | --- | --- | --- | --- | --- | --- | --- | --- | --- | --- | --- | --- | --- | --- | --- | --- | --- | --- | --- | --- |
| CC1CC2(S(=O)(=O)c3ccccc3)ON1CC2S(=O)(=O)c1ccccc1 (stereo unspecified) | > 100 µM (inactive) | > 100 µM (inactive) | > 100 µM (inactive) | > 100 µM (inactive) | > 100 µM (inactive) | > 100 µM (inactive) | > 100 µM (inactive) | > 100 µM (inactive) | > 100 µM (inactive) | > 100 µM (inactive) | > 100 µM (inactive) | > 100 µM (inactive) | > 100 µM (inactive) | > 100 µM (inactive) | 42.3 µM (inactive) |  |  |  |  |  |
| Cc1ccc([S+]([O-])C[C@](NC(=O)OCc2ccccc2)(Sc2ccccc2)C(F)F)cc1 (stereo partly specified) | 21.5 µM (inactive) | 18.7 µM (inactive) | 10.4 µM (inactive) | 1.11 µM (active) | 20.3 µM (inactive) | 10.2 µM (inactive) | 18 µM (inactive) | 16.7 µM (inactive) | 12.9 µM (inactive) | 13.7 µM (inactive) | 4.12 µM (inactive) | 33.3 µM (inactive) | 14.4 µM (inactive) | 16.6 µM (inactive) |  | 21.2 µM (inactive) | 23.9 µM (inactive) | 29.7 µM (inactive) |  |  |
| CCCC(=O)c1c(NOC2OCC(OC(C)=O)C(OC(C)=O)C2OC(C)=O)nc(OC)n(C)c1=O (stereo unspecified) | > 100 µM (inactive) | > 100 µM (inactive) | > 100 µM (inactive) | 3.25 µM (inactive) | > 100 µM (inactive) | 17.4 µM (inactive) | > 100 µM (inactive) | > 100 µM (inactive) | > 100 µM (inactive) | > 100 µM (inactive) | 0.498 µM (active) | > 100 µM (inactive) | > 100 µM (inactive) | > 100 µM (inactive) | > 100 µM (inactive) |  |  |  |  |  |
| C/C(=N\Nc1nc2ccccc2n1C)c1ccncn1 | < 0.01 µM (active) | 3.39 µM (inactive) | 0.0202 µM (active) | 0.0618 µM (active) | 1.52 µM (inactive) | < 0.0152 µM (active) | 0.0378 µM (active) | 0.182 µM (active) | 0.29 µM (active) | < 0.02 µM (active) | < 0.01 µM (active) | 0.0408 µM (active) | 0.65 µM (active) | < 0.0259 µM (active) | 0.313 µM (active) |  | 3.1 µM (inactive) | 0.362 µM (active) | 0.929 µM (active) | 0.0206 µM (active) |
